{"source": "patent US20220409633A1", "about": "“COMPOSITION COMPRISING BUDESONIDE FOR OPHTHALMIC USE” (NTC S.R.L., priority 2019, published 2022)", "key": {"[1]": {"conditions": "cited from earlier work"}, "[2]": {"assay": "Average size distribution of micronized budesonide powder by laser diffractometer", "type": "physicochemical", "conditions": "FIG. 5", "from_the_text": "Preferably, said budesonide has an average size distribution shown in the diagram of FIG. 5, and in tabular form in Table A.1 below (in which the numerical values are expressed in μm).\nIn Table A.1, the parameters Dx(10), Dx(50) and Dx(90) respectively indicate that 10%, 50% and 90% by weight of the particles analysed have a dimensional distribution below the numerical values (expressed in μm) indicated in such Table.\nFor example, the average size distribution could be determined by means of a Spraytec laser diffractometer (Malvern Panalytics, UK), preferably using the instrumental operating parameters shown in Table A.2 below, where the parameters not specified in such table were maintained as per default specifications of the laser diffractometer."}, "[3]": {"assay": "Cumulative distribution Q3% (HELOS Particle Size Analysis) of budesonide powder", "type": "physicochemical", "conditions": "FIG. 4", "from_the_text": "FIGS. 3 and 4 respectively show a diagram of the Cumulative Distribution Q3% (HELOS Particle Size Analysis) with respect to the particle size in μm, and a table corresponding to said diagram of the Cumulative Distribution with standard deviation, according to a possible embodiment of the budesonide that can be used in this invention. […] In this range of there is half the total weight, almost as in the remaining […]; Said budesonide is obtained and supplied by the manufacturer already in this form according to an average size distribution shown in the diagram of FIG. 3, and in tabular form in FIG. 4, which show the cumulative distribution Q3% with respect to the particle size in μm."}}}
{"molecule": "CCCC1O[C@@H]2C[C@H]3[C@@H]4CCC5=CC(=O)C=C[C@]5(C)[C@H]4[C@@H](O)C[C@]3(C)[C@]2(C(=O)CO)O1", "note": "(stereo partly drawn) [budesonide]", "values": [{"measurement": "solubility in water", "setting": "[1]", "result": "not water-soluble"}, {"measurement": "Dx(10)", "setting": "[2]; 10% by weight of particles below this size", "result": 1.10, "unit": "μm"}, {"measurement": "Dx(50)", "setting": "[2]; 50% by weight of particles below this size", "result": 2.02, "unit": "μm"}, {"measurement": "Dx(90)", "setting": "[2]; 90% by weight of particles below this size", "result": 3.68, "unit": "μm"}, {"measurement": "Cumulative Distribution Q3%", "setting": "[3]; x0/μm=2,50", "result": "90,32%"}, {"measurement": "Cumulative Distribution Q3%", "setting": "[3]; x0/μm=3.75", "result": "99,01%"}]}
